These are literature values, as cited in patent US6818776B2, “Alkali metal salt of thiazolidine-2,4-dione derivative” (Kyorin Pharmaceutical Co., Ltd., priority 2000, dated 2004).

Series [1] deals with human peroxisome proliferator-activated receptor (PPAR). The conditions noted are these: reported in K. Murakami et al, Diabetes. 1998, 47, 1841.
For series [2] the following is noted: reported in M. Nomura et al, Bioorg. Med. Chem. Lett., 1999, 9, 533.

`COc1ccc(CC2SC(=O)NC2=O)cc1C(=O)NCc1ccc(C(F)(F)F)cc1` (centres unmarked) [KRP-297, 5-[(2,4-Dioxothiazolidin-5-yl)methyl]-2-methoxy-N-[[4-(trifluoromethyl)phenyl]methyl]benzamide]: the “agonistic action against human PPAR” value in series [1] is “agonistic action”. The antihyperglycemic activity result in series [2] was “excellent antihyperglycemic activity”.
